Experiments:
PfhB2-Fic2 = biological target: T1, PfhB2-Fic2 (Pasteurella multocida, UniProt Q9CPH9); assay: SDS-PAGE autoradiography of modified Cdc42; type: biochemical
T1 sequence (Q9CPH9 3309-3609): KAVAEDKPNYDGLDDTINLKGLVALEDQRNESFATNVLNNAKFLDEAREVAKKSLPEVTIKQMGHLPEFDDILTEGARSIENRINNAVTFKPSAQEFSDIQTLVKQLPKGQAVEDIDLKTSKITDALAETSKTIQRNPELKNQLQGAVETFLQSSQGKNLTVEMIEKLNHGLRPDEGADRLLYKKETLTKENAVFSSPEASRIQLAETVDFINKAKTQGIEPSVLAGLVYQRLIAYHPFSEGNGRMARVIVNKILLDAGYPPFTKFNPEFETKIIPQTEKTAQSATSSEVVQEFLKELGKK

HYPE-Fic = biological target: T2, HYPE-Fic (Homo sapiens, UniProt Q9BVA6); assay: SDS-PAGE autoradiography of modified Cdc42; type: biochemical
T2 sequence (Q9BVA6 181-458): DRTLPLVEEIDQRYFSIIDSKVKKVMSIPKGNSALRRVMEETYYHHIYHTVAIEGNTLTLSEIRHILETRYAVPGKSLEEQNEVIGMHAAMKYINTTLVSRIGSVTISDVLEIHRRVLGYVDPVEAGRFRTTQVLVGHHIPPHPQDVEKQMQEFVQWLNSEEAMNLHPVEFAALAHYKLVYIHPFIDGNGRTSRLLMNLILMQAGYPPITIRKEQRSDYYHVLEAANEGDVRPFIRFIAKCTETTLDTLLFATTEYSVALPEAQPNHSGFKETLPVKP

PfhB2-Fic1 = biological target: T3, PfhB2-Fic1 (Pasteurella multocida, UniProt Q9CPH9); assay: SDS-PAGE autoradiography of modified Cdc42; type: biochemical
T3 sequence (Q9CPH9 2892-3191): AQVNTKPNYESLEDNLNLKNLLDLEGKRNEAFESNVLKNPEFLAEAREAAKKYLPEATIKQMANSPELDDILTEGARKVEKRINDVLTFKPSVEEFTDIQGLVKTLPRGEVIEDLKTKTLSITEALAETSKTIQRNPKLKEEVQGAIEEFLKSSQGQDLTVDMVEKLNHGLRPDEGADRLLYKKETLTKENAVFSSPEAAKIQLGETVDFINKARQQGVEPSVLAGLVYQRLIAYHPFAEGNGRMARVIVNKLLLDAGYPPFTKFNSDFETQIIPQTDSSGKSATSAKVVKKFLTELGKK

IbpA-Fic1 = biological target: T4, IbpA-Fic1 (Histophilus somni, UniProt Q06277); assay: SDS-PAGE autoradiography of modified Cdc42; type: biochemical
T4 sequence (Q06277 2994-3358): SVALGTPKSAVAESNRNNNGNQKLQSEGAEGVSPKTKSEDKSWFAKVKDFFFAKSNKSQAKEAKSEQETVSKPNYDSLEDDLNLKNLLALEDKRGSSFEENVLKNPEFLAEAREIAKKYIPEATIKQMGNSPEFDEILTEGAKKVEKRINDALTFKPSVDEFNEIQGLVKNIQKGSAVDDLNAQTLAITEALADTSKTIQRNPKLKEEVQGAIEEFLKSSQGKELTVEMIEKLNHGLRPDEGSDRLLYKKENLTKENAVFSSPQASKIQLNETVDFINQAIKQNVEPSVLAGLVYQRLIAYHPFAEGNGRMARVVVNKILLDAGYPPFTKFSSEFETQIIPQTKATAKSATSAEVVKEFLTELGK

purified protein = substrate: Nc1ncnc2c1ncn2[C@@H]1O[C@H](COP(=O)(O)OP(=O)(O)OP(=O)(O)O)[C@@H](O)[C@H]1O; assay: purified protein; settings: pH 7.4; 25.0 °C

Molecule: Nc1ncnc2c1ncn2[C@@H]1O[C@H](COP(=O)(O)OP(=O)(O)OP(=O)(O)O)[C@@H](O)[C@H]1O [ATP]
- SDS-PAGE autoradiography of modified Cdc42 (PfhB2-Fic2): ATP was the preferred nucleotide source for all the Fic domains tested
- SDS-PAGE autoradiography of modified Cdc42 (HYPE-Fic): HYPE-Fic efficiently uses ATP, and CTP to a lesser degree, to modify Cdc42
- SDS-PAGE autoradiography of modified Cdc42 (PfhB2-Fic1): ATP was the preferred nucleotide source for all the Fic domains tested
- SDS-PAGE autoradiography of modified Cdc42 (IbpA-Fic1): ATP was the preferred nucleotide source for all the Fic domains tested

B1: IbpA-Fic2 (untagged) (Histophilus somni 2336) (protein)
chain: DETANKVNYQDLEDNLNLKGLISLEDDRNANFESNVLKNEKFLDEAREISKKSIPEATVKQMSHLPEFDDILTEGAKKVESRINKAITFRPSVEEFSEIQDLVKTLPKTKVIEDLSTKTNEITEALAATSKTIQRTPELKEQLKTAIEDFLQNSQGKPLTVQMIENLNHGLRPDEGEGRLLYKKENLTKENAVFSSPEAAKIQLAETVDFINRAKNEGIEPSVVGALVYQRLIAYHPFAEGNGRMARVIVNKILLDAGYPAFTKFSDEFEPQIIPQTKASTKSATSSEVVVEFLKELAKKGSKEDNEQNLEKTDRT
- Km (purified protein): 730 ± 40 µM
- kcat (purified protein): 111 ± 2 s⁻¹

From PMC3173180 (The Journal of Biological Chemistry, 2011)
